Results from ChEMBL document CHEMBL4879554, “Data for DCP probe GNE-2256” (2021).

Columns and labels:
[1] = target: Alpha-2C adrenergic receptor (Homo sapiens) (UniProt P18825); conditions: Compound concentration 10.0 uM
[2] = target: Tyrosine-protein kinase JAK3 (Homo sapiens) (UniProt P52333); assay: JAK3 Kinase panel; conditions: Compound concentration 1.0 uM
[3] = target: Interleukin-1 receptor-associated kinase 4 (Homo sapiens) (UniProt Q9NWZ3); assay: IRAK4 Kinase panel; conditions: Compound concentration 1.0 uM
[4] = target: T1, High affinity nerve growth factor receptor (Homo sapiens, UniProt P04629); assay: TrkA Kinase panel
[5] = target: Tyrosine-protein kinase JAK1 (Homo sapiens, UniProt P23458); assay: JAK1 Kinase panel
[6] = target: Rho-associated protein kinase 1 (Homo sapiens) (UniProt Q13464); assay: ROCK1 Kinase panel; conditions: Compound concentration 1.0 uM
[7] = target: Eukaryotic elongation factor 2 kinase (Homo sapiens) (UniProt O00418); assay: eEF_2K Kinase panel; conditions: Compound concentration 1.0 uM
[8] = target: Rho-associated protein kinase 2 (Homo sapiens) (UniProt O75116); assay: ROCK2 Kinase panel; conditions: Compound concentration 1.0 uM
[9] = target: T1, High affinity nerve growth factor receptor; assay: NanoBRET assay (NTRK1v2, SGC Frankfurt)
Target sequence in this assay (P04629 whole entry): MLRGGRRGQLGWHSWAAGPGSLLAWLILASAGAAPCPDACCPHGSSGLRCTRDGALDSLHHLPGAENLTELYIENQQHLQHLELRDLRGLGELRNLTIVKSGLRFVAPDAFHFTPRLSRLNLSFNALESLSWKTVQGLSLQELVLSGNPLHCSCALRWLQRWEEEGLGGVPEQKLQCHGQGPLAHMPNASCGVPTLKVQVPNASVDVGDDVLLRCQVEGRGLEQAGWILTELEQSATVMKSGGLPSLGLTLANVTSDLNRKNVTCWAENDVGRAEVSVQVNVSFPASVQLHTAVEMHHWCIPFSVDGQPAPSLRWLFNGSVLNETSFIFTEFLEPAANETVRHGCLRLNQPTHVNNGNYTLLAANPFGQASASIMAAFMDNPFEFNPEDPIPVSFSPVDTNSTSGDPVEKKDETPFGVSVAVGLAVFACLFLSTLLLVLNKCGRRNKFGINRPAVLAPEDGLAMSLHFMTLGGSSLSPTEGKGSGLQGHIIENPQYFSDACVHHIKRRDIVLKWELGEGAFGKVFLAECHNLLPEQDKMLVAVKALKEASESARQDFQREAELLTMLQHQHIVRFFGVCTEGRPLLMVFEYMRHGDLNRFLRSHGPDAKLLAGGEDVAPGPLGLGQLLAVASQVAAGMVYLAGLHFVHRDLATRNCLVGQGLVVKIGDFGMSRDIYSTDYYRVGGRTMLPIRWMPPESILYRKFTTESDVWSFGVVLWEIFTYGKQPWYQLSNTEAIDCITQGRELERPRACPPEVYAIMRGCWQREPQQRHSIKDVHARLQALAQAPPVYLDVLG

[10] = target: Proto-oncogene tyrosine-protein kinase ROS (Homo sapiens) (UniProt P08922); assay: Ros Kinase panel; conditions: Compound concentration 1.0 uM
[11] = target: Histamine H4 receptor (Homo sapiens) (UniProt Q9H3N8); conditions: Compound concentration 10.0 uM
[12] = target: Tyrosine-protein kinase BTK (Homo sapiens) (UniProt Q06187); assay: BTK Kinase panel; conditions: Compound concentration 1.0 uM
[13] = target: Mitogen-activated protein kinase kinase kinase 5 (Homo sapiens) (UniProt Q99683); assay: ASK1 Kinase panel; conditions: Compound concentration 1.0 uM
[14] = target: Serine/threonine-protein kinase PAK 6 (Homo sapiens) (UniProt Q9NQU5); assay: PAK6 Kinase panel; conditions: Compound concentration 1.0 uM
[15] = target: Protein kinase C beta type (Homo sapiens) (UniProt P05771); assay: PKC_beta1 Kinase panel; conditions: Compound concentration 1.0 uM
[16] = target: 5-hydroxytryptamine receptor 3A (Homo sapiens) (UniProt P46098); conditions: Compound concentration 10.0 uM
[17] = target: Tyrosine-protein kinase Lck (Homo sapiens) (UniProt P06239); assay: Lck Kinase panel; conditions: Compound concentration 1.0 uM
[18] = target: Protein kinase C theta type (Homo sapiens) (UniProt Q04759); assay: PKC_theta Kinase panel; conditions: Compound concentration 1.0 uM
[19] = target: Serine/threonine-protein kinase Sgk3 (Homo sapiens) (UniProt Q96BR1); assay: SGK3 Kinase panel; conditions: Compound concentration 1.0 uM
[20] = target: Serine/threonine-protein kinase mTOR (Homo sapiens) (UniProt P42345); assay: mTOR Kinase panel; conditions: Compound concentration 1.0 uM
[21] = target: Serine/threonine-protein kinase NLK (Homo sapiens) (UniProt Q9UBE8); assay: NLK Kinase panel; conditions: Compound concentration 1.0 uM
[22] = target: Phosphatidylinositol 4,5-bisphosphate 3-kinase catalytic subunit gamma isoform (Homo sapiens) (UniProt P48736); assay: PI3KG Kinase panel; conditions: Compound concentration 1.0 uM
[23] = target: MAP/microtubule affinity-regulating kinase 3 (Homo sapiens) (UniProt P27448); assay: MARK3 Kinase panel; conditions: Compound concentration 1.0 uM
[24] = target: Phosphatidylinositol 4,5-bisphosphate 3-kinase catalytic subunit alpha isoform (Homo sapiens) (UniProt P42336); assay: PI3KA Kinase panel; conditions: Compound concentration 1.0 uM
[25] = target: Beta-adrenergic receptor kinase 1 (Homo sapiens) (UniProt P25098); assay: GRK2 Kinase panel; conditions: Compound concentration 1.0 uM
[26] = target: Sigma intracellular receptor 2 (Homo sapiens) (UniProt Q5BJF2); conditions: Compound concentration 10.0 uM
[27] = target: Insulin-like growth factor 1 receptor (Homo sapiens) (UniProt P08069); assay: IGF1R Kinase panel; conditions: Compound concentration 1.0 uM
[28] = target: Beta-3 adrenergic receptor (Homo sapiens) (UniProt P13945); conditions: Compound concentration 10.0 uM
[29] = target: Tyrosine-protein kinase receptor UFO (Homo sapiens) (UniProt P30530); assay: Axl Kinase panel; conditions: Compound concentration 1.0 uM
[30] = target: SRSF protein kinase 1 (Homo sapiens) (UniProt Q96SB4); assay: SRPK1 Kinase panel; conditions: Compound concentration 1.0 uM
[31] = target: Angiopoietin-1 receptor (Homo sapiens) (UniProt Q02763); assay: Tie2 Kinase panel; conditions: Compound concentration 1.0 uM
[32] = target: Insulin receptor (Homo sapiens) (UniProt P06213); assay: InsR Kinase panel; conditions: Compound concentration 1.0 uM
[33] = target: Tyrosine-protein kinase JAK2 (Homo sapiens, UniProt O60674); assay: JAK2 Kinase panel
[34] = target: Mitogen-activated protein kinase kinase kinase 9 (Homo sapiens) (UniProt P80192); assay: MLK1 Kinase panel; conditions: Compound concentration 1.0 uM
[35] = target: Vascular endothelial growth factor receptor 1 (Homo sapiens) (UniProt P17948); assay: Flt1 Kinase panel; conditions: Compound concentration 1.0 uM
[36] = target: Non-receptor tyrosine-protein kinase TYK2 (Homo sapiens) (UniProt P29597); assay: TYK2 Kinase panel; conditions: Compound concentration 1.0 uM
[37] = target: Serine/threonine-protein kinase N1 (Homo sapiens) (UniProt Q16512); assay: PRK1 Kinase panel; conditions: Compound concentration 1.0 uM
[38] = target: Wee1-like protein kinase (Homo sapiens) (UniProt P30291); assay: WEE1 Kinase panel; conditions: Compound concentration 1.0 uM
[39] = test system: RAF proto-oncogene serine/threonine-protein kinase (Homo sapiens), P04049 [Y340D,Y341D]; assay: RAF1(Y340D,Y3\n41D) Kinase panel; conditions: Compound concentration 1.0 uM
[40] = target: cAMP-dependent protein kinase catalytic subunit PRKX (Homo sapiens) (UniProt P51817); assay: PrKX Kinase panel; conditions: Compound concentration 1.0 uM
[41] = target: Ephrin type-A receptor 7 (Homo sapiens) (UniProt Q15375); assay: EphA7 Kinase panel; conditions: Compound concentration 1.0 uM
[42] = target: Fibroblast growth factor receptor 3 (Homo sapiens) (UniProt P22607); assay: FGFR3 Kinase panel; conditions: Compound concentration 1.0 uM
[43] = target: Calcium/calmodulin-dependent protein kinase type 1D (Homo sapiens) (UniProt Q8IU85); assay: CaMKI_delta Kinase panel; conditions: Compound concentration 1.0 uM
[44] = target: D(1B) dopamine receptor (Homo sapiens) (UniProt P21918); conditions: Compound concentration 10.0 uM
[45] = target: Inhibitor of nuclear factor kappa-B kinase subunit beta (Homo sapiens) (UniProt O14920); assay: IKK_beta Kinase panel; conditions: Compound concentration 1.0 uM
[46] = target: Serine/threonine-protein kinase Chk1 (Homo sapiens) (UniProt O14757); assay: CHK1 Kinase panel; conditions: Compound concentration 1.0 uM
[47] = target: MAP kinase-interacting serine/threonine-protein kinase 2 (Homo sapiens) (UniProt Q9HBH9); assay: MKNK2 Kinase panel; conditions: Compound concentration 1.0 uM
[48] = target: Mitogen-activated protein kinase kinase kinase 8 (Homo sapiens) (UniProt P41279); assay: Cot Kinase panel; conditions: Compound concentration 1.0 uM
[49] = target: Ribosomal protein S6 kinase beta-1 (Homo sapiens) (UniProt P23443); assay: p70S6K Kinase panel; conditions: Compound concentration 1.0 uM
[50] = target: Serine/threonine-protein kinase MARK1 (Homo sapiens) (UniProt Q9P0L2); assay: MARK1 Kinase panel; conditions: Compound concentration 1.0 uM
[51] = target: Dual specificity protein kinase CLK1 (Homo sapiens) (UniProt P49759); assay: CLK1 Kinase panel; conditions: Compound concentration 1.0 uM
[52] = target: Tyrosine-protein kinase ZAP-70 (Homo sapiens) (UniProt P43403); assay: ZAP-70 Kinase panel; conditions: Compound concentration 1.0 uM
[53] = target: Tyrosine-protein kinase TXK (Homo sapiens) (UniProt P42681); assay: TXK Kinase panel; conditions: Compound concentration 1.0 uM

Tyrosine-protein kinase JAK1, sequence (P23458 whole entry): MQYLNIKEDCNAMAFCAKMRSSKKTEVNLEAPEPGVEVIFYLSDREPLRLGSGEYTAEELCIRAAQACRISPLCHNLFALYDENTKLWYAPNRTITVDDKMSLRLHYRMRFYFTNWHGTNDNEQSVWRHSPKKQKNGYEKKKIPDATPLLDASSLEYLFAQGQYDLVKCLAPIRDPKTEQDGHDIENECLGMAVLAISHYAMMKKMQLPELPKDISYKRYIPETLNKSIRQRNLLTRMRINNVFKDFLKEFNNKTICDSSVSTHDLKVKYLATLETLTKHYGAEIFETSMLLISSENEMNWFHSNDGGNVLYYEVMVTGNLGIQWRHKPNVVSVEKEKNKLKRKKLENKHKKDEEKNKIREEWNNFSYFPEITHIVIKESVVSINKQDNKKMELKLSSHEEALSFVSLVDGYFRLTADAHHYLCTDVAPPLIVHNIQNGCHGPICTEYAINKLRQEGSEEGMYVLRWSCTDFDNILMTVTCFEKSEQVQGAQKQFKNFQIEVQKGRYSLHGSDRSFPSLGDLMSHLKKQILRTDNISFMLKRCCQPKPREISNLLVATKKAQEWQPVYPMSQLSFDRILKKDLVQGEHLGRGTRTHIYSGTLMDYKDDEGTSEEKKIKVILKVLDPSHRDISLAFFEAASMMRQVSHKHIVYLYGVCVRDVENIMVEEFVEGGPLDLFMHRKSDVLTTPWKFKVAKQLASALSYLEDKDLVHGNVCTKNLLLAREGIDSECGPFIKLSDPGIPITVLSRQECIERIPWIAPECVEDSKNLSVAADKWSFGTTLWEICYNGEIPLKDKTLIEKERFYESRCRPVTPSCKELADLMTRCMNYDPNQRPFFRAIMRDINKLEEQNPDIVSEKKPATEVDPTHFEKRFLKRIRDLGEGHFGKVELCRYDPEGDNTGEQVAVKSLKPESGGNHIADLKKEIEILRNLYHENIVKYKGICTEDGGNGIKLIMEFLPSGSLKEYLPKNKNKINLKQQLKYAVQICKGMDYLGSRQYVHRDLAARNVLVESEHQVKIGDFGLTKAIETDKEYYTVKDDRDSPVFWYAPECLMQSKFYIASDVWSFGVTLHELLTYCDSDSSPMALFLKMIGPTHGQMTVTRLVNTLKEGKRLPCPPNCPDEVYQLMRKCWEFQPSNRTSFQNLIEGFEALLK
Tyrosine-protein kinase JAK2, sequence (O60674 whole entry): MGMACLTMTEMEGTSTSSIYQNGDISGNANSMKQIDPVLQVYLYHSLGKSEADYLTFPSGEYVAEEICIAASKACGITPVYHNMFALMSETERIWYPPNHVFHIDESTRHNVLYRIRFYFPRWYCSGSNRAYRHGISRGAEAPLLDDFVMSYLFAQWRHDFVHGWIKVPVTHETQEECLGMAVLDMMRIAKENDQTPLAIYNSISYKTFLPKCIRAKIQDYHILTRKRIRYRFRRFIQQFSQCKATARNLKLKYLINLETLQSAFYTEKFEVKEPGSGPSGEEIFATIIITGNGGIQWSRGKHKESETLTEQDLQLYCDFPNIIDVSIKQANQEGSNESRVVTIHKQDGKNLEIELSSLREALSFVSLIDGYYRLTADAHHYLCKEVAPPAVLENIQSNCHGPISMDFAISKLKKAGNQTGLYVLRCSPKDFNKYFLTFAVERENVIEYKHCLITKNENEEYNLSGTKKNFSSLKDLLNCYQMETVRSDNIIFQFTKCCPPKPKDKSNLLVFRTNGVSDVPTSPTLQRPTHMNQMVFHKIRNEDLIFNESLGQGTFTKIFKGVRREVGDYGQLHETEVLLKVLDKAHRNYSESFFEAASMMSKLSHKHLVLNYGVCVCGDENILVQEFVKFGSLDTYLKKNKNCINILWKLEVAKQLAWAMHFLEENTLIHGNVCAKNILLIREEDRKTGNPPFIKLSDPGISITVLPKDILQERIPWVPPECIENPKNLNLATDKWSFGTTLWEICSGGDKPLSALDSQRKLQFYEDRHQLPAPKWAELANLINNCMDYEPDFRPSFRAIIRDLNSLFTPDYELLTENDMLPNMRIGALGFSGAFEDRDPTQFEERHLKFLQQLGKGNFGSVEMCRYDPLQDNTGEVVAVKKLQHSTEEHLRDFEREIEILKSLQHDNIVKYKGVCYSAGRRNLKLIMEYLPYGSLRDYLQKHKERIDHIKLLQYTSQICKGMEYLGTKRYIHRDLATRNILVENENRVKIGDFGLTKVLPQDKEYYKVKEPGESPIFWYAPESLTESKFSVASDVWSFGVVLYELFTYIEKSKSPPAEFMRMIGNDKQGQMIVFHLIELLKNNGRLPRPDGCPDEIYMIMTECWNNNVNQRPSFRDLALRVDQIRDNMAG
cAMP-dependent protein kinase catalytic subunit PRKX (Homo sapiens), sequence (P51817 whole entry): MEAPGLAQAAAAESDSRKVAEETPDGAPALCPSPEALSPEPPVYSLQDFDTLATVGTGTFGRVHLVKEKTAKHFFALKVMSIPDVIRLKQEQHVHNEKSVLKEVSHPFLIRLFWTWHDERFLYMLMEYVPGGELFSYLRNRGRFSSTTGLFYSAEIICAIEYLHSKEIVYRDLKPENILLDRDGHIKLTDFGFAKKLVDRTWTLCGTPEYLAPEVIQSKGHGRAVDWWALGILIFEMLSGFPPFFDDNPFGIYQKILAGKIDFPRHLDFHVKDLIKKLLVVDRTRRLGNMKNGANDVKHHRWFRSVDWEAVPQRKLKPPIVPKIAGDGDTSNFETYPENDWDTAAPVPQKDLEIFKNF
D(1B) dopamine receptor (Homo sapiens), sequence (P21918 whole entry): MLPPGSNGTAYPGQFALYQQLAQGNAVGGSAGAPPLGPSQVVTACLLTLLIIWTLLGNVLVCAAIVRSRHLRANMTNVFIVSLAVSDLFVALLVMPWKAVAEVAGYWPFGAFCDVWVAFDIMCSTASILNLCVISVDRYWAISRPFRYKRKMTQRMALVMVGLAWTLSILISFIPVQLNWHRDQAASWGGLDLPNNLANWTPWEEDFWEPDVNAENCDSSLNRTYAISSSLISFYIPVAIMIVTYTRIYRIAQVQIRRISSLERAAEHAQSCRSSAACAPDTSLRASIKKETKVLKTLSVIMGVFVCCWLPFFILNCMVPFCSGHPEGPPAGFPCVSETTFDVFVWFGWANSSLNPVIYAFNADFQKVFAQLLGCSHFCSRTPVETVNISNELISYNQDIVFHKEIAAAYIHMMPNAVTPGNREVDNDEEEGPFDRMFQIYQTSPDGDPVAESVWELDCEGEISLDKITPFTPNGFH
Phosphatidylinositol 4,5-bisphosphate 3-kinase catalytic subunit gamma isoform (Homo sapiens), sequence (P48736 whole entry, looked up, canonical isoform): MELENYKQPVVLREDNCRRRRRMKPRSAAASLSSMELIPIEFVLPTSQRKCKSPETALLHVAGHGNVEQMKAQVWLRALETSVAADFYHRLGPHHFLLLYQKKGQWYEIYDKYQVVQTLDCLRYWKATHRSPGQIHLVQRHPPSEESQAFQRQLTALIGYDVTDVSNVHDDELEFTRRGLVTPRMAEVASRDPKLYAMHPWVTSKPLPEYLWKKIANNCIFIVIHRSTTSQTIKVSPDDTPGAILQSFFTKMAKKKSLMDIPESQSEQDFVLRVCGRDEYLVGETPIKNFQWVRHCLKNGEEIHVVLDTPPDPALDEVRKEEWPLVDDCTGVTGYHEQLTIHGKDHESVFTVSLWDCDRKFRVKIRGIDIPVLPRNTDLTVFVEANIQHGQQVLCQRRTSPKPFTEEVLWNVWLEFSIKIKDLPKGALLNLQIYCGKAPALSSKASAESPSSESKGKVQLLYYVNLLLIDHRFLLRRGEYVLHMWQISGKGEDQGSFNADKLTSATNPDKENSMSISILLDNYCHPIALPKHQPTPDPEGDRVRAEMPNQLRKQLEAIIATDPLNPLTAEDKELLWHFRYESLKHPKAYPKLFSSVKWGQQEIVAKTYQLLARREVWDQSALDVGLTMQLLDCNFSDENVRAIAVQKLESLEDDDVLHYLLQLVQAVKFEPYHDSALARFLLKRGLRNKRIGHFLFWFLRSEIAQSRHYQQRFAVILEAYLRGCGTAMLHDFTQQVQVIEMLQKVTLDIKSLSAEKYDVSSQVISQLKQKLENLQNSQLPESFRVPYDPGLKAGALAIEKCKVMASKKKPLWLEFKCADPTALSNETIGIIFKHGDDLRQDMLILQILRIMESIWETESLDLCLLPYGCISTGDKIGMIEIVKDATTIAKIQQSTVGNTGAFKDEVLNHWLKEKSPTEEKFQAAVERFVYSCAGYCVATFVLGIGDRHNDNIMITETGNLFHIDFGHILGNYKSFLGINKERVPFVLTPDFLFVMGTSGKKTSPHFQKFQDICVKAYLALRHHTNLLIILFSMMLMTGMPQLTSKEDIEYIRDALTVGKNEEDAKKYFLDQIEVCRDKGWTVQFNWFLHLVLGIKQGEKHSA

CC(C)(O)[C@H](F)CN1Cc2cc(NC(=O)c3cnn4cccnc34)c(N3CCOCC3)cc2C1=O
0.486 µM: IC50 [33]
inactive: inhibition [1] -8.65% | inhibition [2] 28% | inhibition [3] 101% | inhibition ([4]; Compound concentration 1.0 uM) 71% | inhibition ([5]; Compound concentration 1.0 uM) 83.5% | inhibition [6] 5% | inhibition [7] -0% | inhibition [8] 6% | inhibition [10] 38.5% | inhibition [11] 19.5% | inhibition [12] 42% | inhibition [13] 3.5% | inhibition [14] 7% | inhibition [15] 4% | inhibition [16] -0.18% | inhibition [17] 41.3% | inhibition [18] 1% | inhibition [19] -0.5% | inhibition [20] -0% | inhibition [21] 7% | inhibition [22] 46.5% | inhibition [23] 8.5% | inhibition [24] 21.5% | inhibition [25] -3% | inhibition [26] -0.93% | inhibition [27] 11.5% | inhibition [28] 11.2% | inhibition [29] 17% | inhibition [30] 1.5% | inhibition [31] 6.5% | inhibition [32] 34.5% | inhibition ([33]; Compound concentration 1.0 uM) 80.5% | inhibition [34] 14% | inhibition [35] -1% | inhibition [36] 53.5% | inhibition [37] 0.5% | inhibition [38] 5.5% | inhibition [39] -1.5% | inhibition [40] -2.5% | inhibition [41] 20% | inhibition [42] 1.5% | inhibition [43] 2% | inhibition [44] -6.56% | inhibition [45] 1.5% | inhibition [46] 3% | inhibition [47] 6.5% | inhibition [48] 3% | inhibition [49] 1% | inhibition [50] -1% | inhibition [51] 7.5% | inhibition [52] -6.5% | inhibition [53] 34%
11 µM (not active): EC50 [9]
0.282 µM: IC50 [5]
0.313 µM: IC50 [4]
